{"source": "patent US20220040212A1", "about": "“ORAL REHYDRATION COMPOSITION WITH OLIGOSACCHARIDES” (ABBOTT LABORATORIES, priority 2013, published 2022)", "key": {"[1]": {"experiment": "Stability of oligosaccharides in oral rehydration solution, before/after retort sterilization and 3 weeks after (HPAEC)", "type": "physicochemical", "conditions": "for 6′-SL / Lactose / Sialic acid / % Theoretical 6′-SL: 6′-SL sample, pH 3.5; for % Theoretical 6′-SL: fortification 0.2 g/L", "description": "A study was conducted to determine the relative stabilities of GOS, FOS, 2′-FL, 6′-SL, and LNnT in an oral rehydration solution. A master batch of product was prepared (shown in Table 1), the pH adjusted to approx. 4.25, and subsequently divided into five sub-batches.\nOligosaccharide ingredients were added to each of the sub-batches in amounts shown Table 2, and the pH of each sub-batch was subsequently adjusted to 3.5 with citric acid. The solutions were filled into 1 L plastic bottles, capped and retorted with a cook temperature of 217° F. for 25 minutes. Duplicate samples were collected immediately prior to sterilization and within 24 h after sterilization. Prior to sample analysis, the unsterile samples were stored at refrigerated temperature (˜40° F.) and the sterilized samples were held ambient temperature.\nSamples were analyzed by HPAEC using a Dionex ICS3000 Ion Chromatography System (Thermo Scientific, Inc., Sunnyvale, Calif.) equipped with a pulsed amperometric detector comprised of a AgCl reference electrode, gold working electrode, and CarboPac PA1 guard (4×50 mm) and analytical columns (4×250 mm). Mobile phases were degassed and pressurized with 3 to 5 psi helium, and oligosaccharides eluted from the columns using various gradients detailed in Tables 3-5 at a flow rate of 1.0 mL/min. The column and detector were held at 20±2° C. Oligosaccharide identification and concentration were determined from quadratic fit (not forced through the origin) standard curves. […]\n2′-FL fortification was calculated to be 0.2 g/L. Testing samples were reconstituted at 20 mL to 100 ml, with water, and then filtered using a 0.2 μm PES membrane syringe filter.\nLNnT fortification was calculated to be 0.256 g/L. Testing samples were reconstituted at 20 mL to 100 ml, with water, and then filtered using a 0.2 μm PES membrane syringe filter.\n6′-SL fortification was calculated to be 0.2 g/L. Testing samples were reconstituted at 20 mL to 100 mL with water, and then filtered using a 0.2 μm PES membrane syringe filter."}, "[2]": {"experiment": "Stability of 2′-FL, LNnT and 6′-SL in an ORC over time (0 D to 14 weeks)", "type": "physicochemical", "conditions": "for % Remaining * (6′-SL): vs target fortification", "description": "Another study was performed to determine the stability of 2′-FL, LNnT, and 6′-SL in an ORC over time (e.g., 1 week, 3 weeks, 6 weeks, and 14 weeks).\nSample Preparation: A master batch with a pH of 4.25 is sub-divided. The oligosaccharides are added to the respective ORC in an amount of 0.2 g/L for 2′-FL and 6′-SL, LNnT was fortified in an amount of 0.256 g/L. The pH was then adjusted from 4.25 to 3.5 by addition of citric acid. Prior to sterilization, samples are collected to evaluate oligosaccharide levels. The formulas were then delivered into 1 L bottles and subjected to heat sterilization and allowed to cool to room temperature.\nThe data on day 0 was collected in duplicate for samples prior to sterilization (unsterile) and after sterilization (sterile), thereafter the data was collected only on the sterilized samples. […] The slight fluctuation in lactose and lactulose levels are likely due to method variability.\nThe data on day 0 was collected in duplicate for samples prior to sterilization (unsterile) and after sterilization (sterile), thereafter the data was collected only on the sterilized samples.\nThe data on day 0 was collected in duplicate for samples prior to sterilization (unsterile) and after sterilization (sterile), thereafter the data was collected only on the sterilized samples. […] At 14 weeks, the concentration was 2.3% of the target fortification amount."}, "[3]": {"conditions": "3-week after sterilization, average"}, "[4]": {"conditions": "3-week after sterilization, samples 1, 2"}, "[5]": {"conditions": "sterile (after retort 217° F. 25 min), samples 1, 2"}, "[6]": {"conditions": "sterile (after retort), average"}, "[7]": {"conditions": "6′-SL ORC pH 3.5, 0 D, sterile, average"}, "[8]": {"conditions": "6′-SL ORC pH 3.5, 0 D, sterile, samples 1, 2"}, "[9]": {"conditions": "6′-SL ORC pH 3.5, 0 D, unsterile, average"}, "[10]": {"conditions": "6′-SL ORC pH 3.5, 0 D, unsterile, samples 1, 2"}, "[11]": {"conditions": "6′-SL ORC pH 3.5, 3 WK, sterile, average"}, "[12]": {"conditions": "6′-SL ORC pH 3.5, 3 WK, sterile, samples 1, 2"}, "[13]": {"conditions": "6′-SL ORC pH 3.5, 6 WK, sterile, average"}, "[14]": {"conditions": "6′-SL ORC pH 3.5, 6 WK, sterile, samples 1, 2"}, "[15]": {"conditions": "6′-SL ORC pH 3.5, 14 WK, sterile, average"}, "[16]": {"conditions": "6′-SL ORC pH 3.5, 14 WK, sterile, samples 1, 2"}}, "note": "Where “and” joins values, the source holds several entries; their conditions need not be identical. Equal values may be shown once.", "data": [{"compound": "CC(=O)N[C@H]1[C@H]([C@H](O)[C@H](O)CO)O[C@@](OC[C@H]2O[C@@H](O[C@H]3[C@H](O)[C@@H](O)[C@H](O)O[C@@H]3CO)[C@H](O)[C@@H](O)[C@H]2O)(C(=O)O)C[C@@H]1O", "note": "[6′-SL, 6′-sialyllactose]", "values": [{"measurement": "6′-SL", "setting": "[1]; [3]", "value": 10.5, "unit": "mg/L"}, {"measurement": "Lactose", "setting": "[1]; [3]", "value": 153, "unit": "mg/L"}, {"measurement": "Sialic acid", "setting": "[1]; [3]", "value": 82.9, "unit": "mg/L"}, {"measurement": "% Theoretical 6′-SL", "setting": "[1]; [3]", "value": 5.27, "unit": "%"}, {"measurement": "6′-SL", "setting": "[1]; [4]", "value": "10.5 mg/L and 10.6 mg/L"}, {"measurement": "Lactose", "setting": "[1]; [4]", "value": "152.2 mg/L and 154 mg/L"}, {"measurement": "Sialic acid", "setting": "[1]; [4]", "value": "82.89 mg/L and 82.96 mg/L"}, {"measurement": "% Theoretical 6′-SL", "setting": "[1]; [4]", "value": "5.249% and 5.3%"}, {"measurement": "6′-SL", "setting": "[1]; [5]", "value": "10.39 mg/L and 11.0 mg/L"}, {"measurement": "Lactose", "setting": "[1]; [5]", "value": 149.4, "unit": "mg/L"}, {"measurement": "Sialic acid", "setting": "[1]; [5]", "value": "83.46 mg/L and 83.79 mg/L"}, {"measurement": "6′-SL", "setting": "[1]; [6]", "value": 10.7, "unit": "mg/L"}, {"measurement": "Lactose", "setting": "[1]; [6]", "value": 149, "unit": "mg/L"}, {"measurement": "Sialic acid", "setting": "[1]; [6]", "value": 83.6, "unit": "mg/L"}, {"measurement": "6′-SL", "setting": "[1]; unsterile, average", "value": 173, "unit": "mg/L"}, {"measurement": "Lactose", "setting": "[1]; unsterile, average", "value": 24.6, "unit": "mg/L"}, {"measurement": "Sialic acid", "setting": "[1]; unsterile, average", "value": 4.95, "unit": "mg/L"}, {"measurement": "6′-SL", "setting": "[1]; unsterile, samples 1, 2", "value": "170.8 mg/L and 174.5 mg/L"}, {"measurement": "Lactose", "setting": "[1]; unsterile, samples 1, 2", "value": "24.22 mg/L and 24.90 mg/L"}, {"measurement": "Sialic acid", "setting": "[1]; unsterile, samples 1, 2", "value": "5.055 mg/L and 4.842 mg/L"}, {"measurement": "Further loss 3-weeks after sterilization, relative to sterilized sample (in words)", "setting": "[1]; oral rehydration solution pH 3.5, 3-weeks after sterilization", "value": "No additional loss"}, {"measurement": "Loss of oligosaccharide during sterilization (in words)", "setting": "[1]; oral rehydration solution pH 3.5, retort 217° F. 25 min", "value": "Significant loss"}, {"measurement": "6′-SL", "setting": "[2]; [7]", "value": 10.7, "unit": "mg/L"}, {"measurement": "Lactose", "setting": "[2]; [7]", "value": 149, "unit": "mg/L"}, {"measurement": "Sialic acid", "setting": "[2]; [7]", "value": 83.6, "unit": "mg/L"}, {"measurement": "% Remaining * (6′-SL)", "setting": "[2]; [7]", "value": 5.35, "unit": "%"}, {"measurement": "6′-SL", "setting": "[2]; [8]", "value": "10.39 mg/L and 11 mg/L"}, {"measurement": "Lactose", "setting": "[2]; [8]", "value": 149.4, "unit": "mg/L"}, {"measurement": "Sialic acid", "setting": "[2]; [8]", "value": "83.46 mg/L and 83.79 mg/L"}, {"measurement": "% Remaining * (6′-SL)", "setting": "[2]; [8]", "value": "5.195% and 5.502%"}, {"measurement": "6′-SL", "setting": "[2]; [9]", "value": 173, "unit": "mg/L"}, {"measurement": "Lactose", "setting": "[2]; [9]", "value": 24.6, "unit": "mg/L"}, {"measurement": "Sialic acid", "setting": "[2]; [9]", "value": 4.95, "unit": "mg/L"}, {"measurement": "% Remaining * (6′-SL)", "setting": "[2]; [9]", "value": 86.3, "unit": "%"}, {"measurement": "6′-SL", "setting": "[2]; [10]", "value": "170.8 mg/L and 174.5 mg/L"}, {"measurement": "Lactose", "setting": "[2]; [10]", "value": "24.22 mg/L and 24.9 mg/L"}, {"measurement": "Sialic acid", "setting": "[2]; [10]", "value": "5.055 mg/L and 4.842 mg/L"}, {"measurement": "% Remaining * (6′-SL)", "setting": "[2]; [10]", "value": "85.42% and 87.24%"}, {"measurement": "6′-SL", "setting": "[2]; [11]", "value": 10.5, "unit": "mg/L"}, {"measurement": "% Remaining ** (6′-SL)", "setting": "[2]; [11]", "value": 5.27, "unit": "%"}, {"measurement": "Lactose", "setting": "[2]; [11]", "value": 153, "unit": "mg/L"}, {"measurement": "Sialic acid", "setting": "[2]; [11]", "value": 82.9, "unit": "mg/L"}, {"measurement": "6′-SL", "setting": "[2]; [12]", "value": "10.5 mg/L and 10.6 mg/L"}, {"measurement": "% Remaining ** (6′-SL)", "setting": "[2]; [12]", "value": "5.249% and 5.3%"}, {"measurement": "Lactose", "setting": "[2]; [12]", "value": "152.2 mg/L and 154.0 mg/L"}, {"measurement": "Sialic acid", "setting": "[2]; [12]", "value": "82.89 mg/L and 82.96 mg/L"}, {"measurement": "6′-SL", "setting": "[2]; [13]", "value": 10.5, "unit": "mg/L"}, {"measurement": "% Remaining ** (6′-SL)", "setting": "[2]; [13]", "value": 5.26, "unit": "%"}, {"measurement": "Lactose", "setting": "[2]; [13]", "value": 172, "unit": "mg/L"}, {"measurement": "Sialic acid", "setting": "[2]; [13]", "value": 98, "unit": "mg/L"}, {"measurement": "6′-SL", "setting": "[2]; [14]", "value": "10.47 mg/L and 10.59 mg/L"}, {"measurement": "% Remaining ** (6′-SL)", "setting": "[2]; [14]", "value": "5.234% and 5.295%"}, {"measurement": "Lactose", "setting": "[2]; [14]", "value": "170.5 mg/L and 174.4 mg/L"}, {"measurement": "Sialic acid", "setting": "[2]; [14]", "value": "98.77 mg/L and 97.2 mg/L"}, {"measurement": "6′-SL", "setting": "[2]; [15]", "value": 4.6, "unit": "mg/L"}, {"measurement": "% Remaining ** (6′-SL)", "setting": "[2]; [15]", "value": 2.31, "unit": "%"}, {"measurement": "Lactose", "setting": "[2]; [15]", "value": 152, "unit": "mg/L"}, {"measurement": "Sialic acid", "setting": "[2]; [15]", "value": 91.7, "unit": "mg/L"}, {"measurement": "6′-SL", "setting": "[2]; [16]", "value": "4.66 mg/L and 4.57 mg/L"}, {"measurement": "% Remaining ** (6′-SL)", "setting": "[2]; [16]", "value": "2.330% and 2.285%"}, {"measurement": "Lactose", "setting": "[2]; [16]", "value": "149.5 mg/L and 155.1 mg/L"}, {"measurement": "Sialic acid", "setting": "[2]; [16]", "value": "91.10 mg/L and 92.22 mg/L"}, {"measurement": "Concentration as % of the target fortification amount", "setting": "[2]; 6′-SL ORC pH 3.5, at 14 weeks", "value": 2.3, "unit": "%"}, {"measurement": "Discoloration relative to the other test compositions", "setting": "[2]; ORC pH 3.5, heat sterilized", "value": "Slight discoloration"}, {"measurement": "Change of oligosaccharide level over the course of the study (in words)", "setting": "[2]; ORC pH 3.5, heat sterilized, 0 D to 14 weeks", "value": "significant decrease"}]}]}
